We go through six molecules from ChEMBL document CHEMBL1142113, “Limonoids from the seeds of the marine mangrove Xylocarpus granatum” (J Nat Prod, 2007).

The test system of data set [1] is P388. Description: Cytotoxicity against mouse P388 cells by MTT method. The settings on record: for IC50: Mus musculus, P388; for Activity: mouse, p388. The class given is cell-based. A general note: Tetrazolium assays rely on reduction of a dye to a coloured formazan, in cell work by metabolically active cells.
Data set [2] relates to A549. Put plainly: Cytotoxicity against human A549 cells by SRB method. The note with it: for IC50: Homo sapiens, A549; for Activity: human, a549. It counts as cell-based.

Broadly, the IC50 is the concentration that inhibits the measured activity by half.

Consider `CCC(C)C(=O)O[C@@H]1C([C@@H](OC(C)=O)[C@@]2(O)C(=O)CC[C@]3(C)C2=CC(=O)O[C@H]3c2ccoc2)C(=O)[C@H](C)[C@@H](CC(=O)OC)C1(C)C` (stereo partly specified) [GRANAXYLOCARPIN A], for which the values for the IC50 in data set [1] and in data set [2] were 9.3 µM and over 10 µM, respectively.

In the case of `C/C=C(\C)C(=O)O[C@H](C1=CC(C)(C)[C@H](CC(=O)OC)[C@@H](C)C1=O)[C@@]1(O)C(=O)CC[C@]2(C)C1=CC(=O)O[C@H]2c1ccoc1` [GRANAXYLOCARPIN B], the IC50 in data set [1] was 4.9 µM; in data set [2], over 10 µM.

As for `C/C=C(\C)C(=O)O[C@@H]1[C@@H]2[C@H]3O[C@@]34[C@H](CC[C@@]3(C)[C@H](c5ccoc5)OC(=O)C[C@@]43O)[C@]3(C)[C@@H](CC(=O)OC)[C@]1(C)CO[C@]23O` [GRANAXYLOCARPIN C], the Activity entry in data set [1] and in data set [2] was “Not Active” throughout.

`COC(=O)[C@H](O)[C@H]1[C@]2(C)C[C@]3(OC(C)=O)[C@H]([C@H]2OC(C)=O)[C@@H](OC(C)=O)[C@]2(O)[C@@H]4CC(=O)O[C@@H](c5ccoc5)[C@]4(C)[C@@H](OC(C)=O)C[C@@H]2[C@]13C` [GRANAXYLOCARPIN D]: the Activity result in data set [1] and in data set [2] was “Not Active” throughout.

As to `COC(=O)[C@H](OC(C)=O)[C@H]1[C@]2(C)C[C@]3(OC(C)=O)[C@H]([C@H]2OC(C)=O)[C@@H](OC(C)=O)[C@]2(O)[C@@H]4CC(=O)O[C@@H](c5ccoc5)[C@]4(C)CC[C@@H]2[C@]13C` [GRANAXYLOCARPIN E], the Activity entry in data set [1] and in data set [2] was “Not Active” in each case.

Take `COC(=O)C1=CC[C@@]23CC[C@@H]([C@@](C)(/C=C/C=C(\C)C(=O)O)OC2=O)[C@@]3(OC(C)=O)CC1` [PSEUDOLARIC ACID B]: the half-maximal inhibitory concentration (IC50) in data set [1] amounted to 0.74 µM.
